Read-outs that look alike come from different tables or passages of the source.
Experiments:
[1] = In vitro release of lidocaine from silicone tube devices (diffusion through wall / apertures); format: physicochemical; conditions: in vitro in water at about 37° C.; tubes with or without apertures
Experimental: A study was performed to determine the feasibility of delivering drug through the wall of a drug reservoir via diffusion. […] Some of the devices included an aperture formed through the tube wall, the aperture having a diameter of 150 μm. […] The devices were tested in vitro in water at about 37° C. […] Another study was performed to investigate the feasibility of delivering drug from a device through both a wall of a drug reservoir and from an aperture in the wall of the drug reservoir. Devices were formed form silicone tubes having a length of about 3 cm. […] The devices were tested in vitro in water at about 37° C.

[2] = system: IC; conditions: cited from earlier work

For `CCN(CC)CC(=O)Nc1c(C)cccc1C` [lidocaine base], the “release of drug from silicone tube” value [1] was “can be released from a silicone tube without any apertures”.
In the case of `CCN(CC)CC(=O)Nc1c(C)cccc1C` [lidocaine], the mean pain score ([2]; after second instillation) is given as 1.2, the mean pain score ([2]; immediately following treatment (prior to treatment 6.0)) is given as 1.8 and the duration of effect ([2]; single instillation) is given as “approximately 24 hours”. For the same compound, the mean pain score ([2]; the next day) was 3.7.

Source: patent US10123981B2, “Methods for treatment of pelvic pain and/or comorbid conditions” (priority 2012, dated 2018)
